From patent US11731977B2, “SGC stimulators” (Cyclerion Therapeutics, Inc., priority 2016, dated 2023)

Molecular target: T1, sGC enzyme (Homo sapiens, UniProt Q02108+Q02153)
T1 construct: sGC enzyme activity values in HEK cells, determined by the GloSensor assay; host or cells: HEK293 cells stably expressing GloSensor 40F cGMP biosensor
T1 sequence (Q02153 1-619): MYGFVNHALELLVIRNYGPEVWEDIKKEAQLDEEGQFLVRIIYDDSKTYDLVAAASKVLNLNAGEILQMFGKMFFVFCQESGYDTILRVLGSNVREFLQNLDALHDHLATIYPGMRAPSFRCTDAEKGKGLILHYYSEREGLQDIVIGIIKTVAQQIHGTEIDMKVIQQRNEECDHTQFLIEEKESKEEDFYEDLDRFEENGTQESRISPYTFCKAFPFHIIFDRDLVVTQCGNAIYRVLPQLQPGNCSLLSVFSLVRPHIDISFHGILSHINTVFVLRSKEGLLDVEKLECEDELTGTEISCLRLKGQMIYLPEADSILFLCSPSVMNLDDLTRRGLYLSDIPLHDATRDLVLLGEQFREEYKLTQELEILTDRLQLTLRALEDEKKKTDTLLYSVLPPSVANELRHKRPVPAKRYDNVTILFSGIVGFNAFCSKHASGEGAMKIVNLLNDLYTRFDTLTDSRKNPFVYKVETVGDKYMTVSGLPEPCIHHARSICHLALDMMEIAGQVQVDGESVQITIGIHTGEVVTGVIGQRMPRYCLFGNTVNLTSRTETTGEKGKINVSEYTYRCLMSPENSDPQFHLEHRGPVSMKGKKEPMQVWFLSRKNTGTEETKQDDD
T1 sequence (Q02108 1-690): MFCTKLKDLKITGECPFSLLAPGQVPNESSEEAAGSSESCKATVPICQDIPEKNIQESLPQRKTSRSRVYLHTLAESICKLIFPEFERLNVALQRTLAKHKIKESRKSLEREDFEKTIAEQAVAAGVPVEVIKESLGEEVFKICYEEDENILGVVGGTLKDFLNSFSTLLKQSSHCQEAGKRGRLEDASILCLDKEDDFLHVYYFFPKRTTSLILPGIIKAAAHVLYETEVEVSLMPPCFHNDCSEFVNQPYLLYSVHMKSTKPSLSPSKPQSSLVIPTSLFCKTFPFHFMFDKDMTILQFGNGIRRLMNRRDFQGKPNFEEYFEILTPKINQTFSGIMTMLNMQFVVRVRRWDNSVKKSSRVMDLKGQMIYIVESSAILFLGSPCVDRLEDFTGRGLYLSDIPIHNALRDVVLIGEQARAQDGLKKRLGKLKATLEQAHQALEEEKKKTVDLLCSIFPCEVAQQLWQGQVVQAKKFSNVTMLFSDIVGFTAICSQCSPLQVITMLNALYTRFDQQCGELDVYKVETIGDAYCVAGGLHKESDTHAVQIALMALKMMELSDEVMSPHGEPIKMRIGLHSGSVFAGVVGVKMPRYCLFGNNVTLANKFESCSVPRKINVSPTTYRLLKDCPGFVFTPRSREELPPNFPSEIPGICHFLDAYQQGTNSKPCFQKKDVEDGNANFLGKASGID
Test: cGMP GloSensor cell-based assay, 384-well format (Example 2a)
Conditions: HEK293 GloSensor 40F cGMP cells; 10 μM DETA-NONOate; 50% of high control (30 μM Compound Y); read-out: Abs EC50
From the text: Human embryonic kidney cells (HEK293) cells expressing GloSensor™ 40F cGMP (Part No: CS182801, Promega) were used to evaluate the activity of test compounds. The luminescent biosensors (engineered luciferase) that were incorporated into these cells detect cGMP formed by the compounds stimulating the sGC enzyme and emit luminescence.
cGMP GloSensor cells were maintained in Dulbecco's Modification of Eagle's Medium (DMEM) supplemented with fetal bovine serum (FBS, 10% final) and hygromycine (200 ug/ml). The day before assay, cells were plated in DMEM with 10% FBS in a 50 μL volume at a density of 1.5×10^4 cells/well in a poly-D-lysine coated 384-well flat white-bottom plate (Corning Cat No 35661). Cells were incubated overnight at 37° C. in a humidified chamber with 5% CO2. The next day, medium was removed and cells were replaced with 40 ul/well of GloSensor™, 2 mM (Promega Cat No E1291). Cells were treated for 90 minutes at 25° C. to allow the substrate to equilibrate in the cells. Test compounds and Diethylenetriamine NONOate (DETA-NONOate, or DETA-NO) was diluted to 3 mM (20×) in serum-free CO2 independent medium and serially diluted at 4× dilutions to create 5× dose curve from which 10 ul was added to the wells (x μM concentration for test compound solution and 10 μM concentration for DETA-NONOate solution; wherein x is one of the following final concentrations: 30000 nM, 7500 nM, 1875 nM, 468.8 nM, 117.2 nM, 29.29 nM, 7.320 nM, 1.830 nM, 0.460 nM, 0.114 nM, and 0.029 nM).
For the kinetics studies, luminescense was measured right away for 0.2 sec per well with Envision (Perkin Elmer). For endpoint SAR screening, data were collected after 55 min incubation at room temperature.
Data were normalized to a high control using the following equation: 100*(Sample−Low Control)/(High Control−Low Control), where the low control is the average of 16 samples treated with 1% DMSO, and the high control is the average of 16 samples treated with 30 μM of Compound Y depicted below. Data were fit using a 4-parameter fit (log(agonist) vs. response—variable slope) using GraphPad Prism Software v.5. n=2 for all compounds. The Absolute (Abs) EC50 was interpolated from the curve fit and is defined as the concentration at which a given compound elicits 50% of the high control response after data normalization as indicated above. Compounds failing to elicit a minimum response of 50% are reported as >30 μM or ND. For compounds run in duplicate or n higher than 2, the result herein given is the geometric mean of the several results obtained.

EC50 [nM]	SMILES
> 1000	Cc1nc(-c2cn3ccnc3c(Cc3ccccc3F)n2)n(Cc2ccc(F)cc2)n1 [Compound I-42, 8-(2-fluorobenzyl)-6-(1-(4-fluorobenzyl)-3-methyl-1H-1,2,4-triazol-5-yl)imidazo[1,2-a]pyrazine]
≤ 100	Cc1nc(-c2cn3ccnc3c(Cc3ccccc3F)n2)nn1Cc1cccc(F)c1 [Compound I-47, 8-(2-Fluorobenzyl)-6-(1-(3-fluorobenzyl)-5-methyl-1H-1,2,4-triazol-3-yl)imidazo[1,2-a]pyrazine]
≤ 100	Cc1nc(-c2cn3ccnc3c(Cc3ccccc3F)n2)nn1CC(=O)C(C)(C)C [Compound I-48, 1-(3-(8-(2-Fluorobenzyl)imidazo[1,2-a]pyrazin-6-yl)-5-methyl-1H-1,2,4-triazol-1-yl)-3,3-dimethylbutan-2-one]
100 to 1000	Cc1nc(-c2cn3ccnc3c(Cc3ccccc3F)n2)nn1CCCCF [Compound I-50, 8-(2-Fluorobenzyl)-6-(1-(4-fluorobutyl)-5-methyl-1H-1,2,4-triazol-3-yl)imidazo[1,2-a]pyrazine]
≤ 100	Cc1cc(Cn2nc(-c3cn4ccnc4c(Cc4ccccc4F)n3)nc2C)no1 [Compound I-51, 3-((3-(8-(2-Fluorobenzyl)imidazo[1,2-a]pyrazin-6-yl)-5-methyl-1H-1,2,4-triazol-1-yl)methyl)-5-methylisoxazole]
100 to 1000	CCn1nc(-c2cn3ccnc3c(Cc3ccccc3F)n2)nc1C [Compound I-53, 6-(1-Ethyl-5-methyl-1H-1,2,4-triazol-3-yl)-8-(2-fluorobenzyl)imidazo[1,2-a]pyrazine]
100 to 1000	Cc1nc(-c2cn3ccnc3c(Cc3ccccc3F)n2)nn1CCC(F)(F)F [Compound I-54, 8-(2-Fluorobenzyl)-6-(5-methyl-1-(3,3,3-trifluoropropyl)-1H-1,2,4-triazol-3-yl)imidazo[1,2-a]pyrazine]
≤ 100	CCCCn1nc(-c2cn3ccnc3c(Cc3ccccc3F)n2)nc1C [Compound I-56, 6-(1-Butyl-5-methyl-1H-1,2,4-triazol-3-yl)-8-(2-fluorobenzyl)imidazo[1,2-a]pyrazine]
100 to 1000	Nc1n[nH]c(-c2cn3ccnc3c(Cc3ccccc3F)n2)n1 [Compound I-57, 5-(8-(2-Fluorobenzyl)imidazozo[1,2-a]pyrazin-6-yl)-1H-1,2,4-triazol-3-amine]
≤ 100	Nc1nc(-c2cn3ccnc3c(Cc3ccccc3F)n2)nn1Cc1cccc(F)c1 [Compound I-58, 1-(3-Fluorobenzyl)-3-(8-(2-fluorobenzyl)imidazo[1,2-a]pyrazin-6-yl)-1H-1,2,4-triazol-5-amine]
≤ 100	Nc1nc(-c2cn3ccnc3c(Cc3ccccc3F)n2)nn1CC(F)(F)F [Compound I-59, 3-(8-(2-Fluorobenzyl)imidazo[1,2-a]pyrazin-6-yl)-1-(2,2,2-trifluoroethyl)-1H-1,2,4-triazol-5-amine]
> 1000	Nc1nc(-c2cn3ccnc3c(Cc3ccccc3F)n2)n(CC(F)(F)F)n1 [Compound I-60, 5-(8-(2-fluorobenzyl)imidazo[1,2-a]pyrazin-6-yl)-1-(2,2,2-trifluoroethyl)-1H-1,2,4-triazol-3-amine]
≤ 100	Fc1ccccc1Cc1nc(-c2nc(Cl)n[nH]2)cn2ccnc12 [Compound I-62, 6-(3-Chloro-1H-1,2,4-triazol-5-yl)-8-(2-fluorobenzyl)-imidazo[1,2-a]pyrazine]
100 to 1000	Fc1ccccc1Cc1nc(-c2nc(-n3ccnc3)n[nH]2)cn2ccnc12 [Compound I-63, 6-(3-(1H-imidazol-1-yl)-1H-1,2,4-triazol-5-yl)-8-(2-fluorobenzyl)imidazo[1,2-a]pyrazine]
100 to 1000	CN(C)c1n[nH]c(-c2cn3ccnc3c(Cc3ccccc3F)n2)n1 [Compound I-65, 5-(8-(2-fluorobenzyl)imidazo[1,2-a]pyrazin-6-yl)-N,N-dimethyl-1H-1,2,4-triazol-3-amine]
100 to 1000	N#Cc1cnc2c(Cc3ccccc3F)nc(-c3nc(C(F)(F)F)n[nH]3)cn12 [Compound I-70, 8-(2-Fluorobenzyl)-6-(3-(trifluoromethyl)-1H-1,2,4-triazol-5-yl)imidazo[1,2-a]pyrazine-3-carbonitrile]
≤ 100	Cc1cnc2c(Cc3ccccc3F)nc(-c3nc(C(F)(F)F)n[nH]3)cn12 [Compound I-71, 8-(2-Fluorobenzyl)-3-methyl-6-(3-(trifluoromethyl)-1H-1,2,4-triazol-5-yl)imidazo[1,2-a]pyrazine]
> 1000	Fc1ccccc1Cc1nc(-c2nc(C(F)(F)F)n[nH]2)cn2cnnc12 [Compound I-72, 8-(2-Fluorobenzyl)-6-(3-(trifluoromethyl)-1H-1,2,4-triazol-5-yl)-[1,2,4]triazolo[4,3-a]pyrazine]

SMILES	EC50 [nM]
Fc1ccccc1Cc1nc(-c2nc(C(F)(F)F)n[nH]2)cn2c(I)cnc12 [Compound I-66, 8-(2-Fluorobenzyl)-3-iodo-6-(3-(trifluoromethyl)-1H-1,2,4-triazol-5-yl)imidazo[1,2-a]pyrazine]	100 to 1000
Fc1ccccc1Cc1nc(-c2nc(C(F)(F)F)n[nH]2)cn2c(Cl)cnc12 [Compound I-67, 3-Chloro-8-(2-fluorobenzyl)-6-(3-(trifluoromethyl)-1H-1,2,4-triazol-5-yl)imidazo[1,2-a]pyrazine]	≤ 100
Fc1ccccc1Cc1nc(-c2nc(C(F)(F)F)n[nH]2)cn2c(F)cnc12 [Compound I-68, 3-Fluoro-8-(2-fluorobenzyl)-6-(3-(trifluoromethyl)-1H-1,2,4-triazol-5-yl)imidazo[1,2-a]pyrazine]	≤ 100
